The supplement of paper PMC10307832

Legend:
Test in all cases: relative viability (nuclei count vs DMSO), 5 days (fraction); higher = more cells survive
Adavosertib + Decitabine = compound: C=CCn1c(=O)c2cnc(Nc3ccc(N4CCN(C)CC4)cc3)nc2n1-c1cccc(C(C)(C)O)n1 [Adavosertib] + Nc1ncn([C@H]2C[C@H](O)[C@@H](CO)O2)c(=O)n1 [Decitabine] (partner 2 µM)
Summary of the method: (§1)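 Relative viability divides the nuclei count in treated wells by that in vehicle wells. Lung cancer cell lines were seeded in 1536-well plates, dosed by pin tool the next day, and fixed and stained after 5 days in one step with final 0.05% Triton X-100, 1% formaldehyde and 1 ug/ml Hoechst. Dosing was a single drug or a fixed anchor-drug dose plus five library-drug doses (not always all listed) in √10 steps, and values are medians of duplicate plates imaged at 4×.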

Nelarabine + Luminespib = compound: COc1nc(N)nc2c1ncn2[C@@H]1O[C@H](CO)[C@@H](O)[C@@H]1O [Nelarabine] + CCNC(=O)c1noc(-c2cc(C(C)C)c(O)cc2O)c1-c1ccc(CN2CCOCC2)cc1 [Luminespib] (partner 0.01 µM)
Summary of the method: as §1

Nelarabine + Dasatinib = compound: COc1nc(N)nc2c1ncn2[C@@H]1O[C@H](CO)[C@@H](O)[C@@H]1O [Nelarabine] + Cc1nc(Nc2ncc(C(=O)Nc3c(C)cccc3Cl)s2)cc(N2CCN(CCO)CC2)n1 [Dasatinib] (partner 0.075 µM)
Summary of the method: as §1

Adavosertib + Bortezomib = compound: C=CCn1c(=O)c2cnc(Nc3ccc(N4CCN(C)CC4)cc3)nc2n1-c1cccc(C(C)(C)O)n1 [Adavosertib] + CC(C)C[C@H](NC(=O)[C@H](Cc1ccccc1)NC(=O)c1cnccn1)B(O)O [Bortezomib] (partner 0.002 µM)
Summary of the method: as §1

Row | Cell Line | relative viability (Adavosertib + Decitabine; first compound 0.01 µM) | relative viability (Adavosertib + Decitabine; first compound 0.03162 µM) | relative viability (Adavosertib + Decitabine; first compound 0.1 µM) | relative viability (Adavosertib + Decitabine; first compound 0.3162 µM) | relative viability (Nelarabine + Luminespib; first compound 0.01 µM) | relative viability (Nelarabine + Luminespib; first compound 0.03162 µM) | relative viability (Nelarabine + Luminespib; first compound 0.1 µM) | relative viability (Nelarabine + Luminespib; first compound 0.3162 µM) | relative viability (Nelarabine + Luminespib; first compound 1 µM) | relative viability (Nelarabine + Dasatinib; first compound 0.01 µM) | relative viability (Nelarabine + Dasatinib; first compound 0.03162 µM) | relative viability (Nelarabine + Dasatinib; first compound 0.1 µM) | relative viability (Nelarabine + Dasatinib; first compound 0.3162 µM) | relative viability (Nelarabine + Dasatinib; first compound 1 µM) | relative viability (Adavosertib + Bortezomib; first compound 0.01 µM) | relative viability (Adavosertib + Bortezomib; first compound 0.03162 µM) | relative viability (Adavosertib + Bortezomib; first compound 0.1 µM) | relative viability (Adavosertib + Bortezomib; first compound 0.3162 µM)
1 | HOP-62 | 0.27 | 0.239 | 0.229 | 0.223 | 1.19 | 0.736 | 1 | 1.1 | 0.961 | 0.635 | 0.636 | 0.395 | 0.764 | 0.738 | 0.941 | 1.08 | 1.03 | 1.03
2 | NCI-H1755 | 0.717 | 0.689 | 0.775 | 0.725 | 0.463 | 0.456 | 0.755 | 0.539 | 0.56 | 0.457 | 0.349 | 0.135 | 0.506 | 0.479 | 0.965 | 0.905 | 1.01 | 1.03
3 | NCI-H2126 | 0.518 | 0.596 | 0.512 | 0.568 | 1.04 | 0.951 | 0.822 | 0.892 | 0.977 | 0.701 | 0.55 | 0.43 | 0.692 | 0.639 | 1.12 | 1.17 | 1.11 | 1.15
4 | NCI-H596 | 1.1 | 1.02 | 1.02 | 0.866 | 1.04 | 0.996 | 1.08 | 1.12 | 0.988 | 0.752 | 0.571 | 0.488 | 0.581 | 0.666 | 1.27 | 1.01 | 1 | 1.14
5 | ABC-1 | 1.28 | 1.04 | 1.17 | 0.959 | 0.71 | 0.705 | 0.535 | 0.309 | 0.859 | 0.705 | 0.462 | 0.507 | 0.548 | 0.545 | 0.247 | 0.329 | 0.255 | 0.332
